Assay results reported in patent US6028115A, “Method for preventing sexually transmitted diseases” (priority 1999, dated 2000).

Legend:
[1] = system: Lactobacillus gasseri; test: growth of normal vaginal flora bacterium in culture; assay type: cell-based; details: 0.5 mg/ml, anaerobic, 37° C.
Experimental: This example illustrates the effect of the inhibitory agents of this invention on the normal vaginal flora. Lactobacillus gasseri, which is found in normal vaginal flora, was obtained from the American Type Culture Collection (Rockville, Md.) and cultured under anaerobic conditions at 37° C. in the presence of the desired test agents. Control samples without added test agents were also run. Samples were collected at twenty minute intervals starting at 120 minutes after the start of incubation through 240 minutes. The absorbance at 550 nm was used to estimate the cell density and inhibitory effects. Nonoxynol-9 was also evaluated for comparison purposes.

[2] = system: MT2 cells; test: toxicity towards host cells of the virus assays; assay type: cell-based; details: concentration ranges used in the virus assays
Experimental: Serial dilutions of the test compounds (ranging from 0.1 μg/ml to 1.0 mg/ml) were added to HIV-1 virus such that 50 μl inoculum produced between 70 to 100 syncytia per well in untreated wells containing MT2 cells. The mHV-1 used was strain IIIs propagated in, and harvested from, a T4-lymphobastoid cell line. Each serial dilution of the test compound with virus was placed in each of three wells containing MT2 cells. The test compound alone was added to a fourth well containing MT2 cells to test for possible cytotoxicity. Triplicate virus control samples (no added test compounds but containing the equivalent amounts of the RPMI medium) were also included.

[3] = system: bovine papillomavirus type I; details: general statement; cited from earlier work
[4] = system: HIV-1 virus; details: general statement, no assay details; cited from earlier work
[5] = system: sheep testicular hyaluronidase; test: hyaluronidase inhibition (hyaluronic acid hydrolysis); assay type: biochemical; details: pH 5.5, 10 minutes preincubation, 30 minutes at room temperature
Experimental: Hyaluronidase activity was quantitatively determined by measuring the extent of hyaluronic acid hydrolysis (i.e., the concentration of N-acetylglucosamine-reactive material formed from enzyme activity). Reaction mixtures (0.25 ml) containing the following were prepared: test compound (variable concentration); 0.1 M sodium acetate; 0.15 M sodium chloride; pH adjusted to 5.5; 7.2 units sheep testicular hyaluronidase (Sigma, Type III; H-2251) contained in an acetate buffer; 0.3 mg/ml hyaluronic acid (Sigma, from bovine vitreous humor; H-7630). The enzyme was preincubated with the test agent (1 mg/ml for screening purposes) for 10 minutes before starting the reaction by the addition of hyaluronic acid. The enzyme reaction was determined using the method of Aronson and Davidson (J. Biol. Chem. 241 437-440 (1967)). The reaction mixture was incubated for 30 minutes at room temperature. The reaction product was determined calorimetrically with p-dimethylaminobenzaldehyde (Reissig et al., J. Biol. Chem. 217 959-966 (1965)) by measuring the absorbance at 545 nm.
The reversibility of the hyaluronidase was determined by evaluating enzyme activity at different levels of enzyme (Ackermann and Potter, Proc. Soc. Exp. Biol. Med. 72 1-9 (1949)).

## Nonoxynol-9
[1]
  inhibition of growth of Lactobacillus gasseri: about 60%
[2]
  toxicity towards the host cells: did show cytotoxic effects
[3]
  inhibition of the non-enveloped papillomavirus (statement): not
[4]
  inhibition of the enveloped virus HIV (statement): inhibits
[5]
  IC50: inactive
